Results: the supplement of paper PMC10307832

What was measured:
Experiment in all cases: relative viability (nuclei count vs DMSO), 5 days (fraction); higher = more cells survive
[1] = compound: C1/C(=C\C2=CC=CS2)/C(=O)/C(=C/C3=CC=CS3)/C1 + CC(=O)Nc1cccc(-n2c(=O)n(C3CC3)c(=O)c3c(Nc4ccc(I)cc4F)n(C)c(=O)c(C)c32)c1 [Trametinib] (partner 0.02 µM)
Procedure, shortened: (§1)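 Dosing by pin tool came one day after lung cancer cell lines were seeded in 1536-well plates, using either one drug or a fixed anchor-drug dose plus five library-drug doses (not always all listed) in √10 steps. After 5 days, nuclei were counted on 4× images. Relative viability is treated-well nuclei count divided by vehicle-well nuclei count, and values are medians of duplicate plates.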

[2] = compound: C1/C(=C\C2=CC=CS2)/C(=O)/C(=C/C3=CC=CS3)/C1 + Nc1nc2[nH]cc(CCc3ccc(C(=O)N[C@@H](CCC(=O)O)C(=O)O)cc3)c2c(=O)[nH]1 [Pemetrexed] (partner 0.2 µM)
Procedure, shortened: as §1

TPCA-1 + Luminespib = compound: C1=CC(=CC=C1C2=CC(=C(S2)NC(=O)N)C(=O)N)F [TPCA-1] + CCNC(=O)c1noc(-c2cc(C(C)C)c(O)cc2O)c1-c1ccc(CN2CCOCC2)cc1 [Luminespib] (partner 0.01 µM)
Procedure, shortened: as §1

TPCA-1 + AZD7762 = compound: C1=CC(=CC=C1C2=CC(=C(S2)NC(=O)N)C(=O)N)F [TPCA-1] + NC(=O)Nc1cc(-c2cccc(F)c2)sc1C(=O)N[C@H]1CCCNC1 [AZD7762] (partner 0.2 µM)
Procedure, shortened: as §1

Row | Cell Line | relative viability ([1]; first compound 0.2 µM) | relative viability ([1]; first compound 0.6325 µM) | relative viability ([1]; first compound 2 µM) | relative viability ([1]; first compound 6.325 µM) | relative viability ([1]; first compound 20 µM) | relative viability ([2]; first compound 0.2 µM) | relative viability ([2]; first compound 0.6325 µM) | relative viability ([2]; first compound 2 µM) | relative viability ([2]; first compound 6.325 µM) | relative viability ([2]; first compound 20 µM) | relative viability (TPCA-1 + Luminespib; first compound 0.04 µM) | relative viability (TPCA-1 + Luminespib; first compound 0.1265 µM) | relative viability (TPCA-1 + Luminespib; first compound 0.4 µM) | relative viability (TPCA-1 + Luminespib; first compound 1.265 µM) | relative viability (TPCA-1 + Luminespib; first compound 4 µM) | relative viability (TPCA-1 + AZD7762; first compound 0.1265 µM) | relative viability (TPCA-1 + AZD7762; first compound 0.4 µM) | relative viability (TPCA-1 + AZD7762; first compound 1.265 µM) | relative viability (TPCA-1 + AZD7762; first compound 4 µM) | relative viability (TPCA-1 + AZD7762; first compound 0.04 µM)
1 | NCI-H2085 | 0.516 | 0.513 | 0.545 | 0.635 | 0.538 | 0.963 | 0.909 | 0.96 | 0.857 | 0.939 | 0.427 | 0.408 | 0.574 | 0.473 | 0.45 | 1.02 | 1.01 | 0.9 | 0.669 | 
2 | NCI-H460 | 0.158 | 0.305 | 0.163 | 0.0691 | 0.139 | 0.0622 | 0.0731 | 0.0616 | 0.0608 | 0.0583 | 0.0339 | 0.0348 | 0.0261 | 0.0343 | 0.0263 | 0.684 | 0.738 | 0.622 | 0.731 | 0.676
3 | RERF-LC-KJ | 0.924 | 0.879 | 0.846 | 0.741 | 0.739 | 0.474 | 0.49 | 0.473 | 0.449 | 0.511 | 1.3 | 1.25 | 1.26 | 1.14 | 0.852 | 0.844 | 0.914 | 0.739 | 0.652 | 1.03
4 | LCLC-103H | 0.664 | 0.701 | 0.678 | 0.595 | 0.63 | 0.477 | 0.444 | 0.447 | 0.433 | 0.47 | 0.97 | 0.99 | 0.852 | 0.965 | 0.752 | 0.84 | 0.824 | 0.617 | 0.8 | 0.896
5 | HCC-15 | 0.397 | 0.376 | 0.417 | 0.376 | 0.374 | 0.221 | 0.203 | 0.218 | 0.214 | 0.217 | 0.458 | 0.326 | 0.341 | 0.366 | 0.374 | 1.09 | 1.21 | 1.28 | 1.15 | 1.31
6 | H3255 | 0.644 | 0.583 | 0.596 | 0.446 | 0.666 | 0.573 | 0.594 | 0.61 | 0.528 | 0.602 | 0.696 | 0.893 | 0.836 | 0.822 | 0.622 | 0.835 | 0.863 | 0.688 | 0.694 | 0.925
7 | NCI-H1792 | 0.432 | 0.531 | 0.533 | 0.525 | 0.35 | 0.931 | 0.875 | 0.882 | 0.74 | 0.767 | 0.429 | 0.237 | 0.446 | 0.501 | 0.367 | 0.62 | 0.596 | 0.483 | 0.363 | 0.623
8 | NCI-H1563 |  |  |  |  |  | 0.73 | 0.801 | 0.912 | 0.798 | 0.763 | 0.522 | 0.601 | 0.521 | 0.532 | 0.451 |  |  |  |  | 
9 | NCI-H596 | 0.807 | 0.763 | 0.871 | 0.699 | 0.727 | 0.5 | 0.477 | 0.527 | 0.526 | 0.505 | 0.988 | 1.08 | 0.897 | 1.11 | 1.08 | 1.04 | 1.19 | 1.44 | 1.02 | 1.21
10 | NCI-H661 | 0.593 | 0.602 | 0.585 | 0.523 | 0.549 | 0.914 | 1.01 | 0.949 | 0.806 | 0.959 | 0.973 | 0.934 | 0.962 | 0.846 | 0.806 |  |  |  |  | 
11 | COR-L23 | 0.553 | 0.575 | 0.674 | 0.508 | 0.633 | 0.2 | 0.193 | 0.196 | 0.182 | 0.199 | 0.682 | 0.602 | 0.762 | 0.625 | 0.381 |  |  |  |  | 
12 | HCC-78 | 0.762 | 0.438 | 0.744 | 0.805 | 0.666 | 0.923 | 0.817 | 0.862 | 0.921 | 0.862 |  |  |  |  |  | 0.742 | 0.801 | 0.545 | 0.497 | 0.745
13 | SW 1573 | 0.637 | 0.573 | 0.674 | 0.491 | 0.596 | 0.774 | 0.845 | 0.869 | 0.546 | 0.856 | 0.186 | 0.181 | 0.217 | 0.204 | 0.188 |  |  |  |  | 
14 | SK-MES-1 | 0.601 | 0.58 | 0.549 | 0.502 | 0.568 | 0.972 | 0.959 | 0.949 | 0.752 | 0.988 | 0.876 | 0.763 | 0.677 | 0.33 | 0.365 |  |  |  |  | 
15 | NCI-H1648 | 0.604 | 0.628 | 0.435 | 0.417 | 0.256 | 0.859 | 0.718 | 0.79 | 0.609 | 0.569 |  |  |  |  |  | 0.682 | 0.684 | 0.806 | 0.668 | 0.807
16 | NCI-H2023 | 0.629 | 0.546 | 0.684 | 0.511 | 0.555 | 0.239 | 0.305 | 0.263 | 0.175 | 0.218 | 0.993 | 0.91 | 0.779 | 0.472 | 0.373 |  |  |  |  | 
17 | NCI-H2009 | 0.284 | 0.308 | 0.317 |  | 0.272 | 1.05 | 1.01 | 1 |  | 0.977 | 0.977 | 1.05 | 1.01 | 1.02 | 1.03 |  |  |  |  | 
18 | NCI-H2228 | 0.559 | 0.517 | 0.414 | 0.43 | 0.424 | 0.369 | 0.333 | 0.4 | 0.33 | 0.326 | 0.174 | 0.139 | 0.124 | 0.131 | 0.117 |  |  |  |  | 
19 | ABC-1 |  |  |  |  |  |  |  |  |  |  | 1.24 | 0.477 | 0.34 | 0.665 | 0.47 | 0.606 | 0.935 | 0.836 | 0.945 | 
20 | NCI-H520 | 0.629 | 0.789 | 0.665 |  | 0.677 | 0.644 | 0.623 | 0.727 |  | 0.65 | 0.197 | 0.215 | 0.203 | 0.246 | 0.213 |  |  |  |  | 
21 | NCI-H1703 |  |  |  |  |  |  |  |  |  |  |  |  |  |  |  | 0.118 | 0.136 |  | 0.122 | 0.132
